According to US20250290117A1, “MOLECULAR PHENOTYPIC ANTIMICROBIAL SUSCEPTIBILITY TESTING” (priority 2024, published 2025):

Experiments:
[1] = system: pathogens of clinical samples; test: Molecular phenotypic antimicrobial susceptibility test of clinical samples, extraction DNA purification step prior to PCR (Table 6); assay type: cell-based
Description: (§1) Detection of Molecular Phenotypic Antimicrobial Susceptibility. Disclosed herein are the methods for the detection of phenotypic antimicrobial susceptibility via molecular methods. The present invention describes how a specimen 100 with a known microbial load is incubated and then exposed to a panel of antimicrobial agents to determine sensitivity (prevention of growth) or resistance (allowance of growth) to the specific antimicrobial agents tested utilizing molecular methods.
(§2) Sample Collection. Specimens 100 are collected from patients using sterile collection processes that are employed in routine clinical care. Specimens are transported to the testing facility in boric acid preservative.
(§3) Preparation of the Specimens for Testing. […] The process for pathogen isolation includes steps of harvesting the pathogen (e.g., via centrifugation), isolating pathogen DNA via a DNA isolation and/or purification kit, and performing PCR on the pathogen DNA via PCR components (e.g., primers, enzymes, buffers) as would be known to the skilled artisan. […] This aliquot is used for antimicrobial susceptibility testing if indicated based on the pathogen detection results. […] Specimens 100 with lower pathogen loads could also be utilized in the antibiotic susceptibility phase of testing with or without a longer incubation period.
(§4) Preparation of Antimicrobial Susceptibility Testing Plates. Antimicrobial solutions are prepared at known concentrations. The specific antimicrobials and their concentrations are selected based on the pathogen of interest and the described antimicrobial resistance breakpoints for that specimen pathogen and antimicrobial combination. These antimicrobials have been selected based on those commonly utilized by healthcare providers in routine clinical care for the specific type of suspected infection. The number and types of antimicrobials utilized can be customized based on the infection source, pathogen detected, patient-specific factors such as allergies or other health conditions (e.g., chronic kidney disease or concurrent medication use), or healthcare provider preferences such as antimicrobial availability or cost.
(§5) The antimicrobial solutions are prepared in liquid culture media (such as Muller Hinton Broth) to achieve the desired antimicrobial concentration and are then stored at −80° C. until use. For a given specimen, each antimicrobial is tested at a single or multiple antimicrobial concentration(s) which is its established breakpoints for sensitivity. The antimicrobial solutions are prepared and plated out for each specific pathogen. […] This allows for evaluation of pathogen load when no antimicrobial is present.
(§6) Specimen Exposure to Antimicrobial Agents. The 1 mL aliquot of the specimen 100 previously mixed with culture media and incubated is obtained. Using optical density measurements as a guide, the specimen 100 is diluted to 0.5 McFarland.
(§7) Antimicrobial exposure plates are typically placed into an incubator for 12-16 hours.
(§8) Nucleic Acid Amplification of Antimicrobial Agent Exposed Pathogens. The antimicrobial exposure plate is removed after the period of incubation. The specimen then undergoes a purification or lysis step. For example, the specimen may undergo a purification step (e.g., magnetic bead-based or other separation protocol to isolate genetic material). In another example, the specimen may undergo a cell lysis step. For example, buffer (e.g., lysis buffer) may be added and incubated in the thermal cycler for preparation for direct PCR. Next, the specimen may undergo a polymerase chain reaction (PCR) testing protocol, whereby a semi-quantitative PCR method is utilized. This may be completed either with or without a specific extraction protocol step. The pathogens can be individually targeted and detected, or a universal genetic sequence can be utilized to detect the antimicrobial susceptibility of the specimen as a whole.

[2] = system: pathogens of clinical samples; test: Molecular phenotypic antimicrobial susceptibility test of clinical samples, direct PCR without a separate DNA purification step (Table 6); assay type: cell-based
Description: as §1, §2, §3, §4, §5, §6, §7, §8

[3] = E. faecalis, clinical sample of r93-r99
[4] = E. faecalis, clinical sample of r100-r106
[5] = E. faecalis, clinical sample of r100-r106, Ct Control Avg 23.073
[6] = E. faecalis, clinical sample of r107-r113
[7] = E. faecalis, clinical sample of r107-r113, Ct Control Avg 22.144
[8] = E. faecalis, clinical sample of r114-r120
[9] = E. faecalis, clinical sample of r114-r120, Ct Control Avg 20.822
[10] = E. faecalis, clinical sample of r151-r157
[11] = E. faecalis, clinical sample of r151-r157, Ct Control Avg 20.56
[12] = S. aureus, clinical sample of r85-r92
[13] = E. faecalis, clinical sample of r93-r99, Ct control avg 22.011
[14] = E. faecalis, clinical sample of r100-r106, Ct control avg 21.027
[15] = E. faecalis, clinical sample of r107-r113, Ct control avg 20.529
[16] = E. faecalis, clinical sample of r151-r157, Ct control avg 18.551
[17] = S. aureus, clinical sample of r85-r92, Ct control avg 20.309
[18] = E. coli, clinical sample of r10-r24
[19] = E. coli, clinical sample of r158-r172
[20] = K. aerogenes, clinical sample of r136-r150
[21] = K. pneumoniae, clinical sample of r121-r135
[22] = M. morganii, clinical sample of r55-r69
[23] = M. morganii, clinical sample of r70-r84
[24] = P. mirabilis, clinical sample of r25-r39
[25] = P. mirabilis, clinical sample of r40-r54

In the case of `CN[C@H](CC(C)C)C(=O)N[C@H]1C(=O)N[C@@H](CC(N)=O)C(=O)N[C@H]2C(=O)N[C@H]3C(=O)N[C@H](C(=O)N[C@H](C(=O)O)c4cc(O)cc(O)c4-c4cc3ccc4O)[C@H](O)c3ccc(c(Cl)c3)Oc3cc2cc(c3O[C@@H]2O[C@H](CO)[C@@H](O)[C@H](O)[C@H]2O[C@H]2C[C@](C)(N)[C@H](O)[C@H](C)O2)Oc2ccc(cc2Cl)[C@H]1O` [Vancomycin], the “Molecular Antibiotic Susceptibility Result” value [1, 3] is reported as “Sensitive (Antimicrobial wells with pathogen load detected below the control wells (typically >2 cycle thresholds later) may be reported as Sensitive)”, the “Molecular Antibiotic Susceptibility Result” value [1, 4] is reported as “sensitive” and the Ct [1, 5] is reported as 37.981. For the same compound, the “Molecular Antibiotic Susceptibility Result” value [1, 6] was “sensitive”, the Ct [1, 7] was 32.184 and the “Molecular Antibiotic Susceptibility Result” value [1, 8] was “Sensitive (Antimicrobial wells with pathogen load detected below the control wells (typically >2 cycle thresholds later) may be reported as Sensitive)”. For the same compound, the Ct [1, 9] was 34.122, the “Molecular Antibiotic Susceptibility Result” value [1, 10] was “Sensitive (Antimicrobial wells with pathogen load detected below the control wells (typically >2 cycle thresholds later) may be reported as Sensitive)” and the Ct [1, 11] was “Undet”. The “Molecular Antibiotic Susceptibility Result” value [1, 12] was “Resistant”, the “Molecular Antibiotic Susceptibility Result” value [2, 3] was “Sensitive (Antimicrobial wells with pathogen load detected below the control wells (typically >2 cycle thresholds later) may be reported as Sensitive)” and the Ct [2, 13] was 30.062. The “Molecular Antibiotic Susceptibility Result” value [2, 4] was “sensitive”, the Ct [2, 14] was 35.563 and the “Molecular Antibiotic Susceptibility Result” value [2, 6] was “sensitive”. For the same compound, the Ct [2, 15] was 29.81, the “Molecular Antibiotic Susceptibility Result” value [2, 8] was “Sensitive (Antimicrobial wells with pathogen load detected below the control wells (typically >2 cycle thresholds later) may be reported as Sensitive)” and the “Molecular Antibiotic Susceptibility Result” value [2, 10] was “Sensitive (Antimicrobial wells with pathogen load detected below the control wells (typically >2 cycle thresholds later) may be reported as Sensitive)”. The Ct [2, 16] was 35.428, the “Molecular Antibiotic Susceptibility Result” value [2, 12] was “Resistant” and the Ct [2, 17] was 21.258.
For `CN(C)[C@@H]1C(O)=C(C(N)=O)C(=O)[C@@]2(O)C(O)=C3C(=O)c4c(O)cccc4[C@@](C)(O)[C@H]3C[C@@H]12` [Tetracycline], the “Molecular Antibiotic Susceptibility Result” value [1, 18] was “Sensitive (Antimicrobial wells with pathogen load detected below the control wells (typically >2 cycle thresholds later) may be reported as Sensitive)”, the Ct ([1]; E. coli, clinical sample of r10-r24, Ct Control Avg 18.112) was 28.574 and the “Molecular Antibiotic Susceptibility Result” value [1, 19] was “Sensitive (Antimicrobial wells with pathogen load detected below the control wells (typically >2 cycle thresholds later) may be reported as Sensitive)”. The Ct ([1]; E. coli, clinical sample of r158-r172, Ct Control Avg 20.146) was 34.28, the “Molecular Antibiotic Susceptibility Result” value [1, 3] was “Resistant” and the Ct ([1]; E. faecalis, clinical sample of r93-r99, Ct Control Avg 22.987) was 19.484. For the same compound, the “Molecular Antibiotic Susceptibility Result” value [1, 4] was “Resistant”, the Ct [1, 5] was 23.171 and the Ct [1, 7] was 28.949. For the same compound, the “Molecular Antibiotic Susceptibility Result” value [1, 8] was “Resistant”, the Ct [1, 9] was 21.77 and the Ct [1, 11] was 23.723. The “Molecular Antibiotic Susceptibility Result” value [1, 20] was “Sensitive (Antimicrobial wells with pathogen load detected below the control wells (typically >2 cycle thresholds later) may be reported as Sensitive)”, the Ct ([1]; K. aerogenes, clinical sample of r136-r150, Ct Control Avg 19.994) was 37.04 and the “Molecular Antibiotic Susceptibility Result” value [1, 21] was “Sensitive (Antimicrobial wells with pathogen load detected below the control wells (typically >2 cycle thresholds later) may be reported as Sensitive)”. The Ct ([1]; K. pneumoniae, clinical sample of r121-r135, Ct Control Avg 24.272) was 30.426, the “Molecular Antibiotic Susceptibility Result” value [1, 22] was “Resistant” and the Ct ([1]; M. morganii, clinical sample of r55-r69, Ct Control Avg 28.86) was 26.617. For the same compound, the “Molecular Antibiotic Susceptibility Result” value [1, 23] was “Sensitive (Antimicrobial wells with pathogen load detected below the control wells (typically >2 cycle thresholds later) may be reported as Sensitive)”, the “Molecular Antibiotic Susceptibility Result” value [1, 24] was “Resistant” and the Ct ([1]; P. mirabilis, clinical sample of r25-r39, Ct Control Avg 26.064) was 24.94. For the same compound, the “Molecular Antibiotic Susceptibility Result” value [1, 25] was “Resistant”, the Ct ([1]; P. mirabilis, clinical sample of r40-r54, Ct Control Avg 26.987) was 23.424 and the “Molecular Antibiotic Susceptibility Result” value [1, 12] was “Resistant”. The Ct ([1]; S. aureus, clinical sample of r85-r92, Ct Control Avg 24.32) was 15.029, the “Molecular Antibiotic Susceptibility Result” value [2, 18] was “Sensitive (Antimicrobial wells with pathogen load detected below the control wells (typically >2 cycle thresholds later) may be reported as Sensitive)” and the Ct ([2]; E. coli, clinical sample of r10-r24, Ct control avg 12.97) was 26.521. The “Molecular Antibiotic Susceptibility Result” value [2, 19] was “Sensitive (Antimicrobial wells with pathogen load detected below the control wells (typically >2 cycle thresholds later) may be reported as Sensitive)”, the Ct ([2]; E. coli, clinical sample of r158-r172, Ct control avg 12.894) was 30.717 and the “Molecular Antibiotic Susceptibility Result” value [2, 3] was “Resistant”. The Ct [2, 13] was 21.199, the “Molecular Antibiotic Susceptibility Result” value [2, 4] was “Resistant” and the Ct [2, 14] was 20.684. For the same compound, the Ct [2, 15] was 28.789, the “Molecular Antibiotic Susceptibility Result” value [2, 8] was “Resistant” and the Ct ([2]; E. faecalis, clinical sample of r114-r120, Ct control avg 20.909) was 21.446. The Ct [2, 16] was 21.132, the “Molecular Antibiotic Susceptibility Result” value [2, 20] was “Sensitive (Antimicrobial wells with pathogen load detected below the control wells (typically >2 cycle thresholds later) may be reported as Sensitive)” and the Ct ([2]; K. aerogenes, clinical sample of r136-r150, Ct control avg 13.854) was 30.787. The “Molecular Antibiotic Susceptibility Result” value [2, 21] was “Sensitive (Antimicrobial wells with pathogen load detected below the control wells (typically >2 cycle thresholds later) may be reported as Sensitive)”, the Ct ([2]; K. pneumoniae, clinical sample of r121-r135, Ct control avg […]) was 27.163 and the “Molecular Antibiotic Susceptibility Result” value [2, 22] was “Resistant”. The Ct ([2]; M. morganii, clinical sample of r55-r69, Ct control avg 12.09) was 9.923, the “Molecular Antibiotic Susceptibility Result” value [2, 23] was “Resistant” and the Ct ([2]; M. morganii, clinical sample of r70-r84, Ct control avg 11.677) was 12.206. The “Molecular Antibiotic Susceptibility Result” value [2, 24] was “Resistant”, the Ct ([2]; P. mirabilis, clinical sample of r25-r39, Ct control avg 11.801) was 10.301 and the “Molecular Antibiotic Susceptibility Result” value [2, 25] was “Resistant”. The Ct ([2]; P. mirabilis, clinical sample of r40-r54, Ct control avg 10.06) was 11.498, the “Molecular Antibiotic Susceptibility Result” value [2, 12] was “Resistant” and the Ct [2, 17] was 22.653.
